Assay results published in patent US12723063B2, “GIPR-agonist compounds” (Eli Lilly and Company, priority 2019, dated 2026).
*1 amine or outer side, *2 acyl side, *3 side chain or, on linkers, in order; H or OH if unused. Where a SMILES comes first, the peptide text is derived from it. Side-chain parts run from the residue outwards. [ ]: non-standard residue; d: D form. The star is where a group is joined. C20 diacid = O=C(O)CCCCCCCCCCCCCCCCCCC(=O)*; γGlu = O=C(O)[C@H](CCC(=O)[*:2])N[*:1]; αMeL = CC(C)C[C@](C)(N)C(=O)O; AEEA = NCCOCCOCC(=O)O; Aib = CC(C)(N)C(=O)O

What was measured:
human GLP-1R = target: T1, human GLP-1R (Homo sapiens, UniProt P43220); test: [125I]-GLP-1 binding, SPA with WGA beads, 0.1% bacitracin; details: geometric mean, read-out: hGLP1R Ki
T1 construct: expressed in transfected cells; crude membranes
T1 sequence (P43220 24-463): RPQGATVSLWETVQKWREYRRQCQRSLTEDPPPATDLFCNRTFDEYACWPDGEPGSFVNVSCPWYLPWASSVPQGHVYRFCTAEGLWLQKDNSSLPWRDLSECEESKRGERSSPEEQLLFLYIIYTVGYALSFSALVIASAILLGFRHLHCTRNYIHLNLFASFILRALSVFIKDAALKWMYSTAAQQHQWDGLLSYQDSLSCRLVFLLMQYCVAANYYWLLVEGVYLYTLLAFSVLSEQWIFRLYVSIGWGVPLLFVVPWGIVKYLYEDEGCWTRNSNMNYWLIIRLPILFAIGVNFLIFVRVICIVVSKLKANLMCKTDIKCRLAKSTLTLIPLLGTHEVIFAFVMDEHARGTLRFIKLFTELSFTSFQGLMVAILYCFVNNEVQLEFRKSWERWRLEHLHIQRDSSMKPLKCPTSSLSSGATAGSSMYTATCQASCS
Experimental: (§1) Stably transfected cell lines are prepared by subcloning receptor cDNA into a pcDNA3 expression plasmid and transfected into human embryonic kidney (HEK) 293 (hGcgR and hGLP-1R) or Chinese Hamster Ovary (CHO) (hGIPR) cells followed by selection with Geneticin (hGLP-1R and hGIPR) or hygromycin B (hGcgR).
(§2) Two methods are used for the preparation of crude cell membranes.
(§3) Method 1: Frozen cell pellets are lysed on ice in hypotonic buffer containing 50 mM Tris HCl, pH 7.5, and Roche Complete™ Protease Inhibitors with EDTA. The cell suspension is disrupted using a glass Potter-Elvehjem homogenizer fitted with a Teflon® pestle for 25 strokes. The homogenate is centrifuged at 4° C. at 1100× g for 10 minutes. The supernatant is collected and stored on ice while the pellets are resuspended in homogenization buffer and rehomogenized as described above. The homogenate is centrifuged at 1100× g for 10 minutes. The second supernatant is combined with the first supernatant and centrifuged at 35000× g for 1 hour at 4° C. The resulting membrane pellet is resuspended in homogenization buffer containing protease inhibitors at approximately 1 to 3 mg/mL, quick frozen in liquid nitrogen and stored as aliquots in a −80° C. freezer until use.
(§4) Method 2: Frozen cell pellets are lysed on ice in hypotonic buffer containing 50 mM Tris HCl, pH 7.5, 1 mM MgCl2, Roche Complete™ EDTA-free Protease Inhibitors and 25 units/mL DNAse I (Invitrogen). The cell suspension is disrupted using a glass Potter-Elvehjem homogenizer fitted with a Teflon® pestle for 20 to 25 strokes. The homogenate is centrifuged at 4° C. at 1800× g for 15 minutes. The supernatant is collected and stored on ice while the pellets are resuspended in homogenization buffer (without DNAse I) and rehomogenized as described above. The homogenate is centrifuged at 1800× g for 15 minutes. The second supernatant is combined with the first supernatant and centrifuged an additional time at 1800× g for 15 minutes. The overall supernatant is then centrifuged at 25000× g for 30 minutes at 4° C. The resulting membrane pellet is resuspended in homogenization buffer (without DNAse I) containing protease inhibitors at approximately 1 to 3 mg/mL and stored as aliquots in a −80° C. freezer until use.
The binding buffer contains 25 mM HEPES, pH 7.4, 2.5 mM CaCl2), 1 mM MgCl2, 0.1% (w/v) bacitracin, 0.003% (w/v) TWEEN®-20, and Roche Complete™ Protease Inhibitors without EDTA.
(§5) Data are analyzed using four-parameter (curve maximum, curve minimum, IC50, Hill slope) nonlinear regression routines (Genedata Screener, version 12.0.4, Genedata AG, Basal, Switzerland). […] Values for Ki are reported as the geometric mean, with error expressed as the standard error of the mean (SEM) and n is equal to the number of independent replicates (determined in assays performed on different days). […] SEM is only calculated when […] or greater. Means are expressed as geometric means with the standard error of the mean (SEM) and the number of replicates (n) indicated in parentheses.

human GIPR = target: T2, human GIPR (Homo sapiens, UniProt P48546); test: [125I]-GIP binding, SPA with WGA beads, 0.1% bacitracin; details: geometric mean, read-out: hGIPR Ki
T2 construct: expressed in transfected cells; crude membranes
T2 sequence (P48546 22-466): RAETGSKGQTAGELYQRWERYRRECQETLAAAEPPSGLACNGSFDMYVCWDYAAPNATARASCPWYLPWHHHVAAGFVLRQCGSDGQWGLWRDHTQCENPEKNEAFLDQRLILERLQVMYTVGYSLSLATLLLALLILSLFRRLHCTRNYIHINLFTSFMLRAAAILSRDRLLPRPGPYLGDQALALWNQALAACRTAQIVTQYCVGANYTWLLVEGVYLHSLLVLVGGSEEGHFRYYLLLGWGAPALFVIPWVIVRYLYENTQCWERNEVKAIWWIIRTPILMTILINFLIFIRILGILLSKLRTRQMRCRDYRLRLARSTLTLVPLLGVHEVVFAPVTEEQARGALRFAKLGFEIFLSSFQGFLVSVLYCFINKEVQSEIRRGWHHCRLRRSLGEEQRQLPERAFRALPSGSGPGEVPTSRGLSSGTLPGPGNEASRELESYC
Experimental: as §1, §2, §3, §4
The binding buffer contains 25 mM HEPES, pH 7.4, 2.5 mM CaCl2), 1 mM MgCl2, 0.1% (w/v) bacitracin, 0.003% (w/v) TWEEN®-20, and Roche Complete™ Protease Inhibitors without EDTA. […] Plates are sealed and mixed on a plate shaker (setting 6) for 1 minute and read with a PerkinElmer Trilux MicroBeta® scintillation counter after 2.5 to 12 hours of incubation/settling time at room temperature.
as §5

[1] = target: T3, human GLP-1 receptor (GLP-1R) (Homo sapiens, UniProt P43220); test: cAMP functional assay (HTRF) in HEK293 cells in presence of 0.1% casein; format: cell-based; details: HEK293 cells expressing human GLP-1R, geometric mean, read-out: hGLP1R cAMP Rel EC50 nM (SEM, n)
T3 construct: expressed in transfected cells; host or cells: HEK293
T3 sequence (P43220 24-463): as the sequence (P43220 24-463) above
Experimental: (§6) Each receptor over-expressing cell line (20 μl) is treated with the test peptide in DMEM (Gibco Cat #31053) supplemented with 0.1% Casein (Sigma Cat #C4765), 250 μM IBMX, 1× GlutaMAX™ (Gibco Cat #35050), and 20 mM HEPES (HyClone Cat #SH30237.01) in a 20 μl assay volume. After incubating for 60 minutes at room temperature, the resulting increase in intracellular CAMP is quantitatively determined using the CisBio CAMP Dynamic 2 HTRF Assay Kit (62AM4PEJ). The Lysis buffer containing cAMP-d2 conjugate (20 μl) and the antibody anti-cAMP-Eu3+-Cryptate (20 μl) are then added to determine the cAMP level. After incubating 60 minutes at room temperature, HTRF signal is detected with an Envision 2104 plate reader (PerkinElmer). Fluorescent emission at 620 nm and at 665 nm is measured and the ratio between 620 nm and at 665 nm is calculated and then are converted to nM cAMP per well using a cAMP standard curve. Dose response curves of compounds are plotted as the percentage of stimulation normalized to minimum (buffer only) and maximum (maximum concentration of each control ligand) values and analyzed using a four parameter non-linear regression fit with a variable slope (Genedata Screener 13). EC50 is the concentration of compound causing half-maximal simulation in a dose response curve. A relative EC50 value is derived by non-linear regression analysis using the percent maximal response vs, the concentration of peptide added, fitted to a four-parameter logistic equation.
(§7) Intracellular cAMP levels are determined by extrapolation using a standard curve. Dose response curves of compounds are plotted as the percentage of stimulation normalized to minimum (buffer only) and maximum (maximum concentration of each control ligand) values and analyzed using a four-parameter non-linear regression fit with a variable slope (Genedata Screener 13). EC50 is the concentration of compound causing half-maximal simulation in a dose response curve. Each relative EC50 value for the geometric mean calculation is determined from a curve fitting.
(§8) Concentration response curves of compounds are plotted as the percentage of stimulation normalized to minimum (buffer only) and maximum (maximum concentration of each control ligand) values and analyzed using a four-parameter non-linear regression fit with a variable slope (Genedata Screener 13). EC50 is the concentration of compound causing half-maximal simulation in a dose response curve. […] The standard error of the mean is reported:
(§9) [formula] • The log transform accounts for the EC50 values falling on a multiplicative, rather than an arithmetic scale.
(§10) For illustration, as shown by Example 1, the peptide is tested in 8 runs of the hGIPR CAMP assay. […] Accordingly, each Example will use the geometric mean of those values to normalize the Example assay runs.

[2] = target: T4, human glucagon receptor (GcgR) (Homo sapiens, UniProt P47871); test: as above; format: cell-based; details: HEK293 cells expressing human GcgR, geometric mean, read-out: hGcgR cAMP Rel EC50 nM (SEM, n)
T4 construct: expressed in transfected cells; host or cells: HEK293
T4 sequence (P47871 26-477): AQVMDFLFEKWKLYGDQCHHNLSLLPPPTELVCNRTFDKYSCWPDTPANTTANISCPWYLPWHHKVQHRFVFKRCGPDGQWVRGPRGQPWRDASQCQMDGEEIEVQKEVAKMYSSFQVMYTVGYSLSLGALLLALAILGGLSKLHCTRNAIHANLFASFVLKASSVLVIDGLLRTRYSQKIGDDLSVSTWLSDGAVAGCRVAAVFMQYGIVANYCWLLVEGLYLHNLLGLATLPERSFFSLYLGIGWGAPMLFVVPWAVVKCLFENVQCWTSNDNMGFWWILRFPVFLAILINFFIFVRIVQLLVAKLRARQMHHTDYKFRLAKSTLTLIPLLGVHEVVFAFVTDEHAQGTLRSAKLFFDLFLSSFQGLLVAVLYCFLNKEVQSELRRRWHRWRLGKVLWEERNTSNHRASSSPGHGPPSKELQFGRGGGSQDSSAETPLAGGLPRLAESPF
Experimental: as §6, §7, §8, §9, §10

[3] = target: T5, human glucose-dependent insulinotropic peptide receptor (GIPR) (Homo sapiens, UniProt P48546); test: as above; format: cell-based; details: HEK293 cells expressing human GIPR, geometric mean, read-out: hGIPR cAMP Rel EC50 nM (SEM, n)
T5 construct: expressed in transfected cells; host or cells: HEK293
T5 sequence (P48546 22-466): T2 sequence (P48546 22-466)
Experimental: as §6, §7, §8, §9, §10

[4] = system: CD4+ T cells (CD8+ T cell-depleted PBMCs); test: CD4+ T cell proliferation assay (immunogenicity assessment); format: cell-based, human; details: 0.33 μM, 7 days
Experimental: Protein therapeutics that induce less than 30% positive response in the CD4+ T cell proliferation assay are associated with a low risk of immunogenicity. Briefly, to assess the propensity for a clinical immunogenic response to the compounds of Examples 1, 2, 3, 5, and 6, CD8+ T cell-depleted peripheral blood mononuclear cells (PBMCs) are prepared and labeled with carboxyfluorescein diacetate succinimidyl ester (CFSE; Invitrogen) from a cohort of 10 healthy donors with diverse human leukocyte antigen (HLA) class II haplotypes. Each donor is tested in triplicate with 2.0 mL media control, keyhole limpet hemocyanin (KLH: 0.33 μM), and the compounds of Examples 1, 2, 3, 5, and 6 (0.33 μM). Cultures are incubated for 7 days at 37° C. with 5% CO2. On day 7, samples are analyzed by flow cytometry using a BD LSR II Fortessa (Becton Dickinson; Franklin Lakes, NJ), equipped with a high throughput sampler (HTS). Data is analyzed using FlowJo® Software (FlowJo, LLC/TreeStar; Ashland, OR).
• Cell Division Index (“CDI”): proportion of divided CD4+ T cells to the total number of CD4+ T cells in stimulated versus unstimulated samples.

Compound	Ki (human GLP-1R) [nM]	Ki (human GIPR) [nM]	EC50 [1] [nM]	EC50 [2] [nM]	EC50 [3] [nM]	% Donor Response (n = 10) ([4]; 10 healthy donors, positive response CDI>2.5) [%]	Median Response Strength in positive donors (CDI) ([4]; Cell Division Index)
CC[C@H](C)[C@H](NC(=O)[C@H](CCCCN)NC(=O)[C@H](CC(=O)O)NC(=O)[C@H](CC(C)C)NC(=O)[C@](C)(CC(C)C)NC(=O)[C@@H](NC(=O)[C@H](CO)NC(=O)[C@H](Cc1ccc(O)cc1)NC(=O)[C@H](CC(=O)O)NC(=O)[C@H](CO)NC(=O)[C@@H](NC(=O)[C@H](Cc1ccccc1)NC(=O)[C@@H](NC(=O)CNC(=O)[C@H](CCC(=O)O)NC(=O)C(C)(C)NC(=O)[C@@H](N)Cc1ccc(O)cc1)[C@@H](C)O)[C@@H](C)CC)[C@@H](C)CC)C(=O)N[C@@H](CCCNC(=N)N)C(=O)N[C@@H](CCC(N)=O)C(=O)NC(C)(C)C(=O)N[C@@H](CC(=O)O)C(=O)N[C@@H](Cc1ccccc1)C(=O)N[C@H](C(=O)N[C@@H](CCC(=O)O)C(=O)N[C@@H](Cc1ccc(O)cc1)C(=O)N[C@@H](CCCCNC(=O)COCCOCCNC(=O)COCCOCCNC(=O)CC[C@H](NC(=O)CCCCCCCCCCCCCCCCCCC(=O)O)C(=O)O)C(=O)N[C@@H](CC(C)C)C(=O)N[C@@H](CCC(=O)O)C(=O)N[C@@H](C)C(=O)NCC(=O)N1CCC[C@H]1C(=O)N[C@@H](CO)C(=O)N[C@@H](CO)C(=O)NCC(=O)N[C@@H](C)C(=O)N1CCC[C@H]1C(=O)N1CCC[C@H]1C(=O)N1CCC[C@H]1C(=O)N[C@@H](CO)C(N)=O)C(C)C [Example 118] (H-Y[Aib]EGTFISDYSI[αMeL]LDKIRQ[Aib]DFVEYK([AEEA-AEEA-γGlu-C20 diacid])LEAGPSSGAPPPS-NH2)	> 920	0.0696	> 5000	> 5000	0.0611		
CC[C@H](C)[C@H](NC(=O)[C@H](Cc1ccccc1)NC(=O)[C@@H](NC(=O)CNC(=O)[C@H](CCC(=O)O)NC(=O)C(C)(C)NC(=O)[C@@H](N)Cc1ccc(O)cc1)[C@@H](C)O)C(=O)N[C@@H](CO)C(=O)N[C@@H](CC(=O)O)C(=O)N[C@@H](Cc1ccc(O)cc1)C(=O)N[C@@H](CO)C(=O)N[C@H](C(=O)N[C@@](C)(CC(C)C)C(=O)N[C@@H](CC(C)C)C(=O)N[C@@H](CC(=O)O)C(=O)N[C@@H](CCCCN)C(=O)N[C@@H](CCCCNC(=O)COCCOCCNC(=O)COCCOCCNC(=O)CC[C@H](NC(=O)CCCCCCCCCCCCCCCCCCC(=O)O)C(=O)O)C(=O)N[C@@H](Cc1c[nH]cn1)C(=O)N[C@@H](CCC(N)=O)C(=O)NC(C)(C)C(=O)N[C@@H](CC(=O)O)C(=O)N[C@@H](Cc1ccccc1)C(=O)N[C@H](C(=O)N[C@@H](CCC(=O)O)C(=O)N[C@@H](Cc1ccc(O)cc1)C(=O)N[C@@H](CC(C)C)C(=O)N[C@@H](CC(C)C)C(=O)N[C@@H](CCC(=O)O)C(=O)N[C@@H](CCC(N)=O)C(=O)NCC(=O)N1CCC[C@H]1C(=O)N[C@@H](CO)C(=O)N[C@@H](CO)C(=O)NCC(=O)N[C@@H](C)C(=O)N1CCC[C@H]1C(=O)N1CCC[C@H]1C(=O)N1CCC[C@H]1C(=O)N[C@@H](CO)C(N)=O)C(C)C)[C@@H](C)CC [Example 67] (H-Y[Aib]EGTFISDYSI[αMeL]LDKK([AEEA-AEEA-γGlu-C20 diacid])HQ[Aib]DFVEYLLEQGPSSGAPPPS-NH2)			> 5000	> 5000	0.0627		
keyhole limpet hemocyanin [KLH, reference compound]						100	164.285 (n = 10)
